In general, Km refers to the concentration of substrate that gives half-maximal velocity. Broadly, the Vmax is the rate approached at saturating substrate.

Results on three molecules are retold here after patent US5264355A, “Methlating enzyme from streptomyces MA6858” (Merck & Co., Inc., priority 1992, dated 1993).

The target in data set [1] is T1, 31-O-desmethylFK-506 O-methyltransferase (FKMT) (Streptomyces tacrolimicus, UniProt P74838).
T1 construct: endogenous in cells; host or cells: Native enzyme purified in house from mycelium of Streptomyces MA6858 (ATCC 55098), not recombinant; for the kinetics, purified through the second MonoQ column
T1 sequence (P74838 1-260): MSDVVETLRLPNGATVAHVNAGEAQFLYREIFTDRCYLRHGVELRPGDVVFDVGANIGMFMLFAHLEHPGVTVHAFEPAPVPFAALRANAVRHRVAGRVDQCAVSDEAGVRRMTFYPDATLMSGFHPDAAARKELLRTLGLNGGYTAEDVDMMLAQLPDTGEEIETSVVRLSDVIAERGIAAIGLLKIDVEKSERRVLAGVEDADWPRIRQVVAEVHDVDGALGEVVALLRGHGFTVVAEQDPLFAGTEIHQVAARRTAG
Put plainly: FKMT O-methyltransferase assay / kinetic analysis. The following applies: substrate A as variable, above 50 uM; fixed SAM 220 μM. The format is biochemical, Streptomyces sp. MA6858. As for the experimental part: (§1) This enzyme, is SAM dependent and has requirement for Mg^+2 with optimum concentration of 4 mM. […] The temperature effect on the methylation reaction was examined at 0°, 22°, 24°, 34°, 37°, and 44° C. The optimum temperature for the reaction was determined to be at 34° C. Above this temperature there was a problem with substrate decomposition. Under the established incubation condition in which 31 uM of substrate A and 220 uM of SAM were used, the rate of the methylation reaction was linear up to 35 min with protein concentration up to 100 ug.
(§2) For the kinetic studies, a preparation of the FKMT enzyme which had been purified through the second MonoQ column chromatography was used. Under conditions for the initial velocity measurement, apparent Km and Vmax were determined for 31-O-desmethyFK-506 (substrate A) at one saturating concentration of SAM ([…]). […]
(§3) The assay was carried out in 1 ml. mixture containing 0.025 mM 31-desmethylFK-506, 4 mM MgSO4 and different quantities of the enzyme source in 50 mM phosphate buffer, pH 7.5. […] The plastic sheet was developed in chloroform:methanol (9:1) and area showing standard FK-506 under UV-light was cut and the radioactivity in the cut-strip was measured and the amount of the product formed was calculated.

A further data set deals with in vitro immune systems. The following applies: J. Antibiotics 1987, 40, 1256; cited from earlier work.
Substrate in data set [2]: C=CC[C@@H]1/C=C(\C)C[C@H](C)C[C@H](OC)[C@H]2O[C@@](O)(C(=O)C(=O)N3CCCC[C@H]3C(=O)O[C@H](/C(C)=C/[C@@H]3CC[C@@H](O)[C@H](O)C3)[C@H](C)[C@@H](O)CC1=O)[C@H](C)C[C@@H]2OC
Nature of the data set: FKMT O-methyltransferase assay / kinetic analysis. The format is biochemical, Streptomyces sp. MA6858. The following applies: other: FKMT purified through second MonoQ column, initial velocity, pH 7.5. The protocol:
as §1, §2, §3

Take `C=CC[C@@H]1/C=C(\C)C[C@H](C)C[C@H](OC)[C@H]2O[C@@](O)(C(=O)C(=O)N3CCCC[C@H]3C(=O)O[C@H](/C(C)=C/[C@@H]3CC[C@@H](O)[C@H](O)C3)[C@H](C)[C@@H](O)CC1=O)[C@H](C)C[C@@H]2OC` [31-O-desmethyFK-506]: the substrate inhibition entry in data set [1] is reported as “no substrate inhibition”.
Regarding `C=CC[C@@H]1/C=C(\C)C[C@H](C)C[C@H](OC)[C@H]2O[C@@](O)(C(=O)C(=O)N3CCCC[C@H]3C(=O)O[C@H](/C(C)=C/[C@@H]3CC[C@@H](O)[C@H](OC)C3)[C@H](C)[C@@H](O)CC1=O)[C@H](C)C[C@@H]2OC` [FR-900506, 17-allyl-1,14-dihydroxy-12-[2'-(4"-hydroxy-3"-methoxycyclohexyl)-1'-methylvinyl]-23,25-dimethoxy-13,19,21,27-tetramethyl-11,28-dioxa-4-azatricyclo-[22.3.1.0^4,9]-octacos-18-ene-2,3,10,16-tetraone], in the data set on in vitro immune systems, the “effectiveness relative to cyclosporin in the suppression of in vitro immune systems” value was 100 times.

B1: 31-O-desmethylFK-506 O-methyltransferase (FKMT) (Streptomyces tacrolimicus) (protein)
chain: MSDVVETLRLPNGATVAHVNAGEAQFLYREIFTDRCYLRHGVELRPGDVVFDVGANIGMFMLFAHLEHPGVTVHAFEPAPVPFAALRANAVRHRVAGRVDQCAVSDEAGVRRMTFYPDATLMSGFHPDAAARKELLRTLGLNGGYTAEDVDMMLAQLPDTGEEIETSVVRLSDVIAERGIAAIGLLKIDVEKSERRVLAGVEDADWPRIRQVVAEVHDVDGALGEVVALLRGHGFTVVAEQDPLFAGTEIHQVAARRTAG
notes: Washed mycelium was used for the preparation of the cell-free extract; endogenous in cells; host or cells: Native enzyme purified in house from mycelium of Streptomyces MA6858 (ATCC 55098), not recombinant; for the kinetics, purified through the second MonoQ column
In the case of B1, the Michaelis constant (Km) in data set [2] (saturating SAM (220 uM)) is 23.21 µM. Further, the Vmax in data set [2] (saturating SAM (220 mM as printed)) was found to be 2.33 nmol/mg/min.
